# The NIST ThermoML archive (doi:10.1016/j.jct.2011.02.002)
# ± gives the expanded uncertainty stated by the source.
# Assay: molar heat capacity at constant pressure
# Settings: 101.33 kPa, Crystal, Thermal relaxation technique
smiles,measurement,setting,value
[Hf+4].[O-2].[O-2] [hafnium(IV) oxide],molar heat capacity at constant pressure,1.92 K,0.0006 ± 0.0001 J/K/mol
same,molar heat capacity at constant pressure,2 K,0.00065 ± 8.1e-05 J/K/mol
same,molar heat capacity at constant pressure,2.04 K,0.0007 ± 0.0001 J/K/mol
same,molar heat capacity at constant pressure,2.19 K,0.0009 ± 0.0001 J/K/mol
same,molar heat capacity at constant pressure,2.48 K,0.0011 ± 0.0001 J/K/mol
same,molar heat capacity at constant pressure,2.8 K,0.0015 ± 0.0002 J/K/mol
same,molar heat capacity at constant pressure,3.09 K,0.002 ± 0.0002 J/K/mol
same,molar heat capacity at constant pressure,3.4 K,0.0027 ± 0.0003 J/K/mol
same,molar heat capacity at constant pressure,3.77 K,0.0037 ± 0.0004 J/K/mol
same,molar heat capacity at constant pressure,4.17 K,0.0048 ± 0.0005 J/K/mol
same,molar heat capacity at constant pressure,4.63 K,0.0065 ± 0.0007 J/K/mol
same,molar heat capacity at constant pressure,5 K,0.00802 ± 0.00082 J/K/mol
same,molar heat capacity at constant pressure,5.17 K,0.0091 ± 0.0009 J/K/mol
same,molar heat capacity at constant pressure,5.74 K,0.0118 ± 0.0012 J/K/mol
same,molar heat capacity at constant pressure,6.4 K,0.0162 ± 0.0016 J/K/mol
same,molar heat capacity at constant pressure,7.11 K,0.022 ± 0.0022 J/K/mol
same,molar heat capacity at constant pressure,7.9 K,0.0304 ± 0.003 J/K/mol
same,molar heat capacity at constant pressure,8.79 K,0.0411 ± 0.0041 J/K/mol
same,molar heat capacity at constant pressure,9.77 K,0.0569 ± 0.0057 J/K/mol
same,molar heat capacity at constant pressure,10 K,0.061 ± 0.006 J/K/mol
same,molar heat capacity at constant pressure,10.87 K,0.0795 ± 0.008 J/K/mol
same,molar heat capacity at constant pressure,12.08 K,0.1132 ± 0.011 J/K/mol
same,molar heat capacity at constant pressure,13.43 K,0.1598 ± 0.016 J/K/mol
same,molar heat capacity at constant pressure,14.85 K,0.2256 ± 0.023 J/K/mol
same,molar heat capacity at constant pressure,16.63 K,0.3276 ± 0.033 J/K/mol
same,molar heat capacity at constant pressure,18.43 K,0.4834 ± 0.048 J/K/mol
same,molar heat capacity at constant pressure,20 K,0.63 ± 0.01 J/K/mol
same,molar heat capacity at constant pressure,20.37 K,0.6725 ± 0.014 J/K/mol
same,molar heat capacity at constant pressure,22.69 K,0.967 ± 0.019 J/K/mol
same,molar heat capacity at constant pressure,25.26 K,1.369 ± 0.028 J/K/mol
same,molar heat capacity at constant pressure,28.1 K,1.905 ± 0.038 J/K/mol
same,molar heat capacity at constant pressure,30 K,2.3 ± 0.05 J/K/mol
same,molar heat capacity at constant pressure,31.26 K,2.569 ± 0.052 J/K/mol
same,molar heat capacity at constant pressure,34.79 K,3.429 ± 0.069 J/K/mol
same,molar heat capacity at constant pressure,38.68 K,4.469 ± 0.09 J/K/mol
same,molar heat capacity at constant pressure,40 K,4.82 ± 0.1 J/K/mol
same,molar heat capacity at constant pressure,43 K,5.684 ± 0.11 J/K/mol
same,molar heat capacity at constant pressure,47.81 K,7.049 ± 0.14 J/K/mol
same,molar heat capacity at constant pressure,50 K,7.72 ± 0.15 J/K/mol
same,molar heat capacity at constant pressure,53.14 K,8.65 ± 0.17 J/K/mol
same,molar heat capacity at constant pressure,59.07 K,10.45 ± 0.21 J/K/mol
same,molar heat capacity at constant pressure,65.65 K,12.39 ± 0.25 J/K/mol
same,molar heat capacity at constant pressure,72.95 K,14.5 ± 0.29 J/K/mol
same,molar heat capacity at constant pressure,81.06 K,16.95 ± 0.34 J/K/mol
same,molar heat capacity at constant pressure,90.05 K,19.69 ± 0.39 J/K/mol
same,molar heat capacity at constant pressure,100 K,22.26 ± 0.45 J/K/mol
same,molar heat capacity at constant pressure,100.01 K,22.35 ± 0.45 J/K/mol
same,molar heat capacity at constant pressure,110.26 K,25.03 ± 0.5 J/K/mol
same,molar heat capacity at constant pressure,120.29 K,27.43 ± 0.55 J/K/mol
same,molar heat capacity at constant pressure,130.3 K,29.98 ± 0.6 J/K/mol
same,molar heat capacity at constant pressure,140.32 K,32.44 ± 0.65 J/K/mol
same,molar heat capacity at constant pressure,150 K,34.61 ± 0.69 J/K/mol
same,molar heat capacity at constant pressure,150.53 K,34.59 ± 0.69 J/K/mol
same,molar heat capacity at constant pressure,160.66 K,36.82 ± 0.74 J/K/mol
same,molar heat capacity at constant pressure,170.61 K,38.83 ± 0.78 J/K/mol
same,molar heat capacity at constant pressure,180.78 K,40.81 ± 0.82 J/K/mol
same,molar heat capacity at constant pressure,190.96 K,42.62 ± 0.85 J/K/mol
same,molar heat capacity at constant pressure,200 K,44.22 ± 0.88 J/K/mol
same,molar heat capacity at constant pressure,201.26 K,44.45 ± 0.89 J/K/mol
same,molar heat capacity at constant pressure,211.45 K,46.16 ± 0.92 J/K/mol
same,molar heat capacity at constant pressure,221.7 K,48.01 ± 0.96 J/K/mol
same,molar heat capacity at constant pressure,231.89 K,49.47 ± 0.99 J/K/mol
same,molar heat capacity at constant pressure,242.02 K,50.89 ± 1 J/K/mol
same,molar heat capacity at constant pressure,250 K,51.9 ± 1 J/K/mol
same,molar heat capacity at constant pressure,252.09 K,52.39 ± 1 J/K/mol
same,molar heat capacity at constant pressure,262.17 K,53.45 ± 1.1 J/K/mol
same,molar heat capacity at constant pressure,272.31 K,54.56 ± 1.1 J/K/mol
same,molar heat capacity at constant pressure,273.15 K,54.95 ± 1.1 J/K/mol
same,molar heat capacity at constant pressure,282.4 K,55.7 ± 1.1 J/K/mol
same,molar heat capacity at constant pressure,292.46 K,56.89 ± 1.1 J/K/mol
same,molar heat capacity at constant pressure,298.15 K,57.73 ± 1.1 J/K/mol
same,molar heat capacity at constant pressure,302.51 K,58.63 ± 1.2 J/K/mol
